Results reported in PMC4320154, “Treatment of Methicillin-resistant Staphylococcus aureus experimental Osteomyelitis with bone-targeted Vancomycin” (SpringerPlus, 2013).
Counter-ions that a name gives are not always drawn. Like-named read-outs stand apart in the source and are kept apart here.

Tests used:
[1] = assay type: in vivo, male Wistar rats
Description: (§1) Four weeks after establishing infection, five rats were sacrificed, the left tibia aseptically removed and quantitative cultures performed. The remaining animals underwent surgical débridement of the infection site with sterile saline and were arbitrarily assigned to one of five study arms for a duration of 21 days: No treatment (n=17), vancomycin HCl every 12 hours (n=17, 42 doses), BT2-peg2-vancomycin diformate every 12 hours (n=17, 42 doses), BT2-peg2-vancomycin diformate every 12 hours for 3.5 days and then every fourth day thereafter (n=16, 11 doses), and BT2-peg2-vancomycin diformate once per week (n=15, 3 doses). Vancomycin HCl was administered at 50 mg/kg and BT2-peg2-vancomycin diformate at 63.85 mg/kg (equivalent to 50 mg/kg active vancomycin); both were administered intraperitoneally. Twelve hours after completion of therapy (day 50), blood was collected via cardiac puncture for hematology and chemistry studies [performed by Charles River (Wilmington, MA)], and drug concentration studies. Rats were sacrificed with CO2. The left (infected) tibia from one animal in each group was collected for histopathology with bones placed in 10% neutralized buffered formalin (NBF), decalcified, embedded in […], prepared as longitudinal cuts and stained with hematoxylin and eosin. The left (infected) tibias from the remaining animals were weighed, cryopulverized and processed for quantitative and qualitative bacterial culture. Culture results were expressed as log10 cfu/g of bone tissue.
Kidneys from all animals were weighed, observed for abnormalities in size or color, and placed in NBF. Histological analysis was performed by Seventh Wave (Chesterfield, MO). Microscopic lesions were graded on a scale of one to four, with four being the most severe. Tubulointerstitial nephritis was characterized by multifocal non-suppurative interstitial inflammation, interstitial fibrosis, tubular epithelial degeneration, necrosis, and regeneration with frequent intra-tubular neutrophilic inflammation and cellular debris.

[2] = system: Thirty clinical isolates of MRSA; assay: microbe, parasite or virus in culture; assay type: cell-based, Staphylococcus aureus
Description: (§2) Thirty clinical isolates of MRSA were studied. […] The minimum bactericidal concentration (MBC) of vancomycin HCl and BT2-peg2-vancomycin diacetate were also determined according to CLSI guidelines (Clinical and Laboratory Standards Institute [1999]).

[3] = Hydroxyapatite (HA) binding assay; conditions: 50 mM Tris–HCl pH 7.4, 1% DMSO
Description: 10^-5 M solutions of tetracycline, vancomycin HCl or BT2-peg2-vancomycin diacetate in 50 mM Tris–HCl buffer, pH 7.4, 1% DMSO were prepared. […] An HA slurry of 0.5 g HA/100 ml 50 mM Tris–HCl buffer, 1% DMSO was prepared. For each analyte, two samples were tested in triplicate. For one sample, 1 ml of 10^-5 M analyte and 100 μl 50 mM Tris–HCl buffer, 1% DMSO was pipetted into a microcentrifuge tube. For the second sample, 1 ml of 10^-5 M analyte and 100 μl of the HA slurry was pipetted into a microcentrifuge tube. The samples were mixed gently by inversion for five minutes and then centrifuged at 12,000 g for three minutes to sediment the HA. The supernatant was transferred to another microcentrifuge tube. An electronic spectral scan (ultraviolet–visible) from 220–520 nm was obtained for each analyte using a Varian Cary 300 Bio Scan (Agilent Technologies, Santa Clara, CA). The blank was 50 mM Tris–HCl buffer, 1% DMSO. The wavelength of maximum absorbance (λmax) was determined, and the extinction coefficient (ϵ) calculated using the Beer-Lambert law. Absorbance of the samples incubated with HA was measured at λmax, and the molar concentration of the analyte determined using the Beer-Lambert law and the previously calculated extinction coefficient. The fraction adsorbed to HA was calculated for each sample. […]

[4] = system: Thirty clinical isolates of MRSA; assay type: cell-based, Staphylococcus aureus; conditions: CLSI; 30 MRSA isolates
Description: as §2

[5] = system: MRSA recovered from treated or untreated animals; assay type: cell-based, Staphylococcus aureus
Description: as §2
Ten MRSA colonies per animal recovered from quantitative bacterial cultures were tested for susceptibility to BT2-peg2-vancomycin diformate and/or vancomycin HCl.

[6] = Plasma concentrations in infected animals by LC/MS; assay type: in vivo, male Wistar rats
Description: as §1
Plasma concentrations of BT2-peg2-vancomycin in infected animals were measured by liquid chromatography/mass spectrometry (LC/MS). […] The elutes (50 μl) were diluted with 450 μl 5% ACN in 0.1% formic acid and analyzed by Accela LC System (Thermo Scientific, San Jose, CA) coupled with a LTQ-Orbitrap XL mass spectrometer (Thermo Scientific, San Jose, CA). […] Elutes from the LC column were ionized by electrospray ionization and BT2-peg2-vancomycin and teicoplanin were detected by multiple reaction monitoring. […]
Plasma concentrations of vancomycin were measured by LC/MS. […]

[7] = rat, in vivo, 63.85 mg/kg; cited from earlier work
Description: Chemical conjugation of vancomycin to a bone-targeting moiety would theoretically yield a compound targeting delivery of vancomycin to bone, a strategy that could be useful in the treatment of bone infection. Pradama Inc. has developed a bone-targeted vancomycin, BT2-peg2-vancomycin (Figure 1) (Pierce et al. [2011]). Previous studies show concentrations of BT2-peg2-vancomycin twelve hours after a single injection (63.85 mg/kg, equivalent to 50 mg/kg vancomycin) were 27.97 and 14.18 μg/ml for plasma and bone, respectively. Concentrations of BT2-peg2-vancomycin after seven doses given every 12 h ...

MRSA IDRL-4293 = assay type: cell-based, Staphylococcus aureus; conditions: MRSA isolate used in the experimental osteomyelitis model
Description: as §2
The experimental model described was performed in accordance with the guidelines of the Institutional Animal Care and Use Committee of the Mayo Clinic. Experimental osteomyelitis was established in 90 male Wistar rats using a modification of Zak’s model of experimental osteomyelitis (O'Reilly & Mader [1999]). […] Animals were anesthetized with ketamine and xylazine and the proximal third of the medial left tibia surgically exposed. A 0.5 mm hole was drilled into the medullary cavity. Fifty microliters of morrhuate sodium (a sclerosing agent) was injected into the cavity, followed by 50 μl sterile saline containing 10^7 colony forming units (cfu) of MRSA IDRL-4293. The muscle was reattached with coated vicryl sutures (Ethicon, Somerville, NJ). The skin was closed with tissue glue (Tissuemend, Butler Animal Health Supply, Dublin, OH) and wound clips (Harvard Apparatus, Holliston, MA). The wound was sprayed with a wound adhesive (Aluspray, Butler Animal Health Supply, Dublin, OH), along with a chewing repellent (Chewguard, Summit Hill Laboratories, Tinton Falls, NJ).

[8] = broth microdilution, CLSI, 30 MRSA isolates
[9] = male, Wistar, rat, in vivo, ip, 63.85 mg/kg

CN[C@H](CC(C)C)C(=O)N[C@H]1C(=O)N[C@@H](CC(N)=O)C(=O)N[C@H]2C(=O)N[C@H]3C(=O)N[C@H](C(=O)N[C@H](C(=O)NCCOCCOCC(=O)Nc4ccc(OC)c(C(N)=O)c4O)c4cc(O)cc(O)c4-c4cc3ccc4O)[C@H](O)c3ccc(c(Cl)c3)Oc3cc2cc(c3O[C@@H]2O[C@H](CO)[C@@H](O)[C@H](O)[C@H]2O[C@H]2C[C@](C)(N)[C@H](O)[C@H](C)O2)Oc2ccc(cc2Cl)[C@H]1O [BT2-peg2-vancomycin diformate]
kidney size ([1]; rat, in vivo): ~ 25.5 × 17.5 mm | kidney gross appearance (color, size) ([1]; rat, in vivo, ip): lighter in color and larger | kidney histology: tubulointerstitial nephritis grade ([1]; rat, in vivo, ip): 4

Cc1onc(-c2ccccc2)c1C(=O)N[C@@H]1C(=O)N2[C@@H]1SC(C)(C)[C@@H]2C(=O)O [oxacillin]
MIC50 ([2]; Staphylococcus aureus, broth microdilution, CLSI, 30 MRSA isolates, read-out: MIC at which 50% of the isolates were inhibited (MIC50)): > 128 µg/mL

CN[C@H](CC(C)C)C(=O)N[C@H]1C(=O)N[C@@H](CC(N)=O)C(=O)N[C@H]2C(=O)N[C@H]3C(=O)N[C@H](C(=O)N[C@H](C(=O)O)c4cc(O)cc(O)c4-c4cc3ccc4O)[C@H](O)c3ccc(c(Cl)c3)Oc3cc2cc(c3O[C@@H]2O[C@H](CO)[C@@H](O)[C@H](O)[C@H]2O[C@H]2C[C@](C)(N)[C@H](O)[C@H](C)O2)Oc2ccc(cc2Cl)[C@H]1O [vancomycin]
HA binding index ([3]; 10^-5 M analyte, HA slurry, mixed 5 min, UV–vis at λmax, triplicate, % bound/% tetracycline bound × 100): 0 | MIC at which 50% of the isolates were inhibited (MIC50) [2, 8]: 1 µg/mL | MIC at which 90% of the isolates were inhibited (MIC90) [2, 8]: 2 µg/mL | MBC at which 90% of isolates were killed (MBC90) [4]: 16 µg/mL | increase in MIC of recovered isolates ([5]; all treatment groups): No increase in vancomycin or BT2-peg2-vancomycin MIC of more than one doubling dilution | MIC of recovered MRSA ([5]; isolates from animals treated with BT2-peg2-vancomycin diformate once weekly): 1 to 2 µg/mL | MIC of recovered MRSA ([5]; isolates from animals treated with BT2-peg2-vancomycin diformate twice daily): 1 to 4 µg/mL | MIC of recovered MRSA ([5]; isolates from animals treated with BT2-peg2-vancomycin diformate twice daily for 3.5 days then once every fourth day): 1 to 2 µg/mL | MIC of recovered MRSA ([5]; isolates recovered from the untreated group): 1 to 2 µg/mL | MIC of recovered MRSA ([5]; isolates recovered from vancomycin HCl-treated animals): 2 to 4 µg/mL | Plasma concentration, median ([6]; 12 h after last dose, twice daily for 21 days ip, vancomycin HCl 50 mg/kg (n=16), BTV 63.85 mg/kg (n=13), LC/MS): 710 ng/mL

CN[C@H](CC(C)C)C(=O)N[C@H]1C(=O)N[C@@H](CC(N)=O)C(=O)N[C@H]2C(=O)N[C@H]3C(=O)N[C@H](C(=O)N[C@H](C(=O)NCCOCCOCC(=O)Nc4ccc(OC)c(C(N)=O)c4O)c4cc(O)cc(O)c4-c4cc3ccc4O)[C@H](O)c3ccc(c(Cl)c3)Oc3cc2cc(c3O[C@@H]2O[C@H](CO)[C@@H](O)[C@H](O)[C@H]2O[C@H]2C[C@](C)(N)[C@H](O)[C@H](C)O2)Oc2ccc(cc2Cl)[C@H]1O [BT2-peg2-vancomycin]
MIC at which 50% of the isolates were inhibited (MIC50) ([2]; Thirty clinical isolates of): 1 µg/mL | MIC at which 90% of the isolates were inhibited (MIC90) ([2]; Thirty clinical isolates of): 2 µg/mL | level at 12 h [6, 9]: 130000 ng/mL | level at 48 h [6, 9]: 880 ng/mL | bone concentration [7]: 14.18 µg/mL | plasma concentration [7]: 27970 ng/mL

CN[C@H](CC(C)C)C(=O)N[C@H]1C(=O)N[C@@H](CC(N)=O)C(=O)N[C@H]2C(=O)N[C@H]3C(=O)N[C@H](C(=O)N[C@H](C(=O)O)c4cc(O)cc(O)c4-c4cc3ccc4O)[C@H](O)c3ccc(c(Cl)c3)Oc3cc2cc(c3O[C@@H]2O[C@H](CO)[C@@H](O)[C@H](O)[C@H]2O[C@H]2C[C@](C)(N)[C@H](O)[C@H](C)O2)Oc2ccc(cc2Cl)[C@H]1O [vancomycin HCl]
MIC range [2, 8]: 0.5 to 2 µg/mL | MBC at which 50% of isolates were killed [4]: 2 µg/mL | MBC range [4]: 0.5 to 64 µg/mL | MBC (MRSA IDRL-4293): 2 µg/mL | MIC (MRSA IDRL-4293): 2 µg/mL | kidney gross appearance (color, size) ([1]; every 12 hours for 21 days ip): deep maroon color and size consistent with body weight | kidney histology: tubulointerstitial nephritis grade ([1]; every 12 hours for 21 days ip, lesions graded one to four, four most severe): did not exhibit microscopic abnormalities | Kidney weight, median (range) ([1]; twice daily for 21 days ip, vancomycin HCl 50 mg/kg, BTV 63.85 mg/kg, no treatment 1.4): 1.4 (1.1-1.7) grams | BUN, median (range) ([1]; twice daily for 21 days ip, vancomycin HCl 50 mg/kg, BTV 63.85 mg/kg, normal 9–30): 18.5 (15–21) mg/dl | Creatinine, median (range) ([1]; twice daily for 21 days ip, vancomycin HCl 50 mg/kg, BTV 63.85 mg/kg, normal range 0.4 to 0.7): 0.5 (0.4-0.6) mg/dl | Albumin, median (range) ([1]; twice daily for 21 days ip, vancomycin HCl 50 mg/kg, BTV 63.85 mg/kg, normal range 3.2 to 4.5): 3.4 (3.1-3.6) g/dl

CN(C)[C@@H]1C(O)=C(C(N)=O)C(=O)[C@@]2(O)C(O)=C3C(=O)c4c(O)cccc4[C@@](C)(O)[C@H]3C[C@@H]12 [tetracycline]
fraction bound to HA ([3]; at 10^-5 M, reference analyte): approximately 50%
